Structures can show the parent of a compound that is named as a salt.

The target of one assay is T1, sigma-1 receptor (Homo sapiens, UniProt Q99720).
T1 construct: incubing Jurkat cell membranes ([…] protein per tube) with [^3H](+)-pentazocine; endogenous in cells; host or cells: Jurkat cell membranes
T1 sequence (Q99720 whole entry): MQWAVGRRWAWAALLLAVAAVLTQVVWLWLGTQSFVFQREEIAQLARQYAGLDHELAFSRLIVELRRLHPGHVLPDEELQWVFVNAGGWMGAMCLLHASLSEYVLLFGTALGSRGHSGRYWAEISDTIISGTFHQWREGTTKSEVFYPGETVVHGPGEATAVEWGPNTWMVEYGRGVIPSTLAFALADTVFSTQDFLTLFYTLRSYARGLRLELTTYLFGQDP
The assay can be described thus: sigma-1 receptor binding assay ([3H](+)-pentazocine displacement, Jurkat cell membranes). The conditions noted are these: tested compound 10 nM, [3H](+)-pentazocine 15 nM, 37° C., 2 hours. Here is the method:
The sigma-1 receptor binding assays were performed according to Ganapathy et al. (J Pharmacol Exp Ther 28:251-60, 1999). The sigma-1 receptor binding assay was carried out by incubing Jurkat cell membranes ([…] protein per tube) with [^3H](+)-pentazocine a selective sigma-1 radiotracer (15 nM) and a range of concentration of tested compounds, at 37° C. for 2 hours in 5 mM tris/HCl buffer (pH=7.4). The inhibition of [^3H](+)-pentazocine binding assay is mainly used to determine the inhibition constant (Ki) of potential sigma-1 receptor ligands. These assays are performed with a single concentration of [^3H](+)-pentazocine at a concentration near its KD and increasing concentrations of non-radioactive ligands.
As for `O=c1c(N2CCN(c3ccccc3)CC2)ccnn1CC1CCN(Cc2ccccc2)CC1` [cpd 41, 2-((1-benzylpiperidin-4-yl)methyl)-4-(4-phenylpiperazin-1-yl)pyridazin-3(2H)-one hydrochloride], the inhibition (commonly the relative decrease from the control value, in per cent) at 0.01 µM was determined as 5.2%.
The same measure, in the same setting: the same measure for `O=c1c(-c2ccccc2)ccnn1CC1CCN(CC2CCOCC2)CC1` [cpd 15, 4-phenyl-2-((1-((tetrahydro-2H-pyran-4-yl)methyl)piperidin-4-yl)methyl)pyridazin-3(2H)-one dihydrochloride]: 19.3%; for `O=c1c(-c2ccccc2)ccnn1CC1CCN(CC2CCCCC2)CC1` [cpd 13, 2-((1-(cyclohexylmethyl)piperidin-4-yl)methyl)-4-phenylpyridazin-3(2H)-one hydrochloride]: 59.3%.
The same measure, in the same setting: the same measure for `O=c1c(CCc2ccccc2)ccnn1CC1CCN(Cc2ccccc2)CC1` [cpd 36, 2-((1-benzylpiperidin-4-yl)methyl)-4-phenethylpyridazin-3(2H)-one]: 44.2%.
On the same count and under the same terms, for `O=c1c(-c2ccccc2)ccnn1CC1CCN(CC(O)c2ccc(F)cc2)CC1` (stereo not drawn) [cpd 23, 2-((1-(2-(4-fluorophenyl)-2-hydroxyethyl)piperidin-4-yl)methyl)-4-phenylpyridazin-3(2H)-one hydrochloride] the value was 1.3%; for `O=c1c(-c2ccccc2)ccnn1CC1CCN(Cc2ccncc2)CC1` [cpd 14, 4-phenyl-2-((1-(pyridin-4-ylmethyl)piperidin-4-yl)methyl)pyridazin-3(2H)-one hydrochloride], 16.4%.
On to `O=C(CN1CCC(Cn2nccc(-c3ccccc3)c2=O)CC1)c1ccc(F)cc1` [cpd 24, 2-((1-(2-(4-fluorophenyl)-2-oxoethyl)piperidin-4-yl)methyl)-4-phenylpyridazin-3(2H)-one hydrochloride], for which the inhibition at 0.01 µM was found to be 6.2%.
As to `O=c1c(-c2ccccc2)ccnn1C1CCCN(Cc2ccccc2)CC1` (stereo not drawn) [cpd 6, 2-(1-benzylazepan-4-yl)-4-phenyl-2,3-dihydropyridazin-3-one hydrochloride], the inhibition at 0.01 µM was 81.4%.
For `Cl.O=c1c(N2CCCCC2)ccnn1CC1CCN(Cc2ccccc2)CC1` [cpd 39, 2-[(1-benzylpiperidin-4-yl)methyl]-4-(piperidin-1-yl)-2,3-dihydropyridazin-3-one hydro-chloride], the “sigma-1 receptor % inhibition 10 nM” value amounted to 51.8%.
In the case of `O=c1c(-c2ccccc2)cccn1CC1CCN(Cc2ccccc2)CC1` [cpd 46, 1-[(1-benzylpiperidin-4-yl)methyl]-3-phenyl-1,2-dihydropyridin-2-one hydrochloride], the inhibition at 0.01 µM was 75.6%.
`O=c1c(-c2ccccc2)ccnn1C1CCN(CCc2ccccc2)CC1` [cpd 3, 4-phenyl-2-[1-(2-phenylethyl)piperidin-4-yl]-2,3-dihydropyridazin-3-one hydrochloride]: the inhibition at 0.01 µM was 41.9%.
The same measure, in the same setting: the same measure for `O=c1c(-c2ccccc2)ccnn1C1CCN(Cc2ccccc2)CC1` [cpd 1, 2-(1-benzylpiperidin-4-yl)-4-phenylpyridazin-3(2H)-one hydrochloride]: 59.9%.
As for `Cl.O=c1c(-c2ccccc2)ccnn1C1CCN(CC2CCCC2)CC1` [cpd 5, 2-[1-(cyclopentylmethyl)piperidin-4-yl]-4-phenyl-2,3-dihydropyridazin-3-one hydro-chloride], the “sigma-1 receptor % inhibition 10 nM” value is reported as 60.7%.
In the case of `O=c1cc(-c2ccccc2)cnn1CC1CCN(Cc2ccccc2)CC1` [cpd 8, 2-((1-benzylpiperidin-4-yl)methyl)-5-phenylpyridazin-3(2H)-one hydrochloride], the inhibition at 0.01 µM was determined as 31.5%.
The compound `O=c1c(-c2ccccc2Cl)ccnn1CC1CCN(Cc2ccccc2)CC1` [cpd 33, 2-[(1-benzylpiperidin-4-yl)methyl]-4-(2-chlorophenyl)-2,3-dihydropyridazin-3-one hydrochloride] gave an inhibition at 0.01 µM of 51.2%.
Consider `O=c1c(-c2ccccc2)ccnn1CC1CCN(CCO)CC1` [cpd 20, 2-((1-(2-hydroxyethyl)piperidin-4-yl)methyl)-4-phenylpyridazin-3(2H)-one hydrochloride], for which at 0.01 µM the inhibition was 18.9%.
The same measure, in the same setting: for `O=c1c(-c2ccccc2)ccnn1CC1CCN(Cc2ccc(Cl)cc2)CC1` [cpd 12, 2-((1-(4-chlorobenzyl)piperidin-4-yl)methyl)-4-phenylpyridazin-3(2H)-one hydrochloride] the value was 73.1%; for `O=c1c(-c2ccccc2)ccnn1CC1CCN(CC(O)c2ccccc2)CC1` (stereo not drawn) [cpd 25, 2-((1-(2-hydroxy-2-phenylethyl)piperidin-4-yl)methyl)-4-phenylpyridazin-3(2H)-one hydrochloride], 15.3%; for `O=c1c(-c2ccccc2)ccnn1CC1CCN(CCc2ccccc2)CC1` [cpd 10, 2-((1-phenethylpiperidin-4-yl)methyl)-4-phenylpyridazin-3(2H)-one hydrochloride], 29.2%.
`CCCN1CCC(Cn2nccc(-c3ccccc3)c2=O)CC1` [cpd 11, 4-phenyl-2-((1-propylpiperidin-4-yl)methyl)pyridazin-3(2H)-one hydrochloride]: the inhibition at 0.01 µM worked out at 3.9%.
With `O=c1c(CCc2ccccc2)ccnn1C1CCN(Cc2ccccc2)CC1` [cpd 37, 2-(1-benzylpiperidin-4-yl)-4-(2-phenylethyl)-2,3-dihydropyridazin-3-one hydrochloride], at 0.01 µM the inhibition was 90%.
`O=c1c(N2CCc3ccccc3C2)ccnn1CC1CCN(Cc2ccccc2)CC1` [cpd 42, 2-((1-benzylpiperidin-4-yl)methyl)-4-(3,4-dihydroisoquinolin-2(1H)-yl)pyridazin-3(2H)-one hydrochloride]: the inhibition at 0.01 µM was 25.4%.
The same measure, in the same setting: for `O=c1c(-c2ccccc2)ccnn1CC1CCN(Cc2ccc(O)cc2)CC1` [cpd 18, 2-((1-(4-hydroxybenzyl)piperidin-4-yl)methyl)-4-phenylpyridazin-3(2H)-one hydrochloride] the value was 16.7%.
The same measure, in the same setting: the same measure for `O=c1cc(-c2ccccc2)cnn1C1CCN(Cc2ccccc2)CC1` [cpd 2, 2-(1-benzylpiperidin-4-yl)-5-phenylpyridazin-3(2H)-one hydrochloride]: 86%; for `O=c1c(N2CCOCC2)ccnn1CC1CCN(Cc2ccccc2)CC1` [cpd 40, 2-((1-benzylpiperidin-4-yl)methyl)-4-morpholinopyridazin-3(2H)-one hydrochloride]: 8.2%.
On the same count and under the same terms, for `O=c1c(-c2ccccc2)ccnn1C1CCN(CC2CC2)CC1` [cpd 4, 2-[1-(cyclopropylmethyl)piperidin-4-yl]-4-phenyl-2,3-dihydropyridazin-3-one hydrochloride] the value was 13.5%; for `O=c1c(-c2ccccc2)cccn1C1CCN(Cc2ccccc2)CC1` [cpd 44, 1-(1-benzylpiperidin-4-yl)-3-phenyl-1,2-dihydropyridin-2-one hydrochloride], 29.6%.
With `O=c1c(-c2ccccc2)ccnn1CCC1CCN(Cc2ccccc2)CC1` [cpd 26, 2-(2-(1-benzylpiperidin-4-yl)ethyl)-4-phenylpyridazin-3(2H)-one hydrochloride], the inhibition at 0.01 µM was 80.9%.
Consider `O=c1c(-c2ccccc2)ccnn1CC1(O)CCN(Cc2ccccc2)CC1` [cpd 29, 2-((1-benzyl-4-hydroxypiperidin-4-yl)methyl)-4-phenylpyridazin-3(2H)-one hydrochloride], for which at 0.01 µM the inhibition was 10.6%.
For `O=c1c(N2CCCCC2)ccnn1C1CCN(Cc2ccccc2)CC1` [cpd 38, 2-(1-benzylpiperidin-4-yl)-4-(piperidin-1-yl)-2,3-dihydropyridazin-3-one hydrochloride], at 0.01 µM the inhibition was 52.3%.
On to `Cl.Cl.O=c1c(-c2ccccc2)ccnn1CC1CCN(Cc2cnc[nH]2)CC1` [cpd 16, 2-{[1-(1H-imidazol-5-ylmethyl)piperidin-4-yl]methyl}-4-phenyl-2,3-dihydropyridazin-3-one dihydro-chloride], for which the “sigma-1 receptor % inhibition 10 nM” value is reported as 3.8%.
`O=c1c(-c2ccccc2)cncn1CC1CCN(Cc2ccccc2)CC1` [cpd 45, 3-((1-benzylpiperidin-4-yl)methyl)-5-phenylpyrimidin-4(3H)-one] displayed an inhibition at 0.01 µM of 75.7%.
Turning to `O=c1cc(-c2ccccc2)cnn1CCC1CCN(Cc2ccccc2)CC1` [cpd 27, 2-(2-(1-benzylpiperidin-4-yl)ethyl)-5-phenylpyridazin-3(2H)-one hydrochloride], at 0.01 µM the inhibition was 61.7%.
`CC(C1CCN(Cc2ccccc2)CC1)n1nccc(-c2ccccc2)c1=O` (stereo not drawn) [cpd 28, 2-(1-(1-benzylpiperidin-4-yl)ethyl)-4-phenylpyridazin-3(2H)-one hydro chloride] returned an inhibition at 0.01 µM of 37%.

The assay is the same for the next values; noted with them: tested compound 100 nM, [3H](+)-pentazocine 15 nM, 37° C., 2 hours.
With `COc1ccc(-c2ccnn(C3CCN(Cc4ccccc4)CC3)c2=O)cc1` [cpd 30, 2-(1-benzylpiperidin-4-yl)-4-(4-methoxyphenyl)pyridazin-3(2H)-one hydrochloride], the inhibition at 0.1 µM came to 75.8%.
The same measure, in the same setting: the same measure for `O=c1c(-c2ccc(C(F)(F)F)cc2)ccnn1C1CCN(Cc2ccccc2)CC1` [cpd 31, 2-(1-benzylpiperidin-4-yl)-4-[4-(trifluoromethyl)phenyl]-2,3-dihydropyridazin-3-one hydro chloride]: 80%.
As for `Cl.O=c1c(-c2ccc(Cl)cc2)ccnn1C1CCN(Cc2ccccc2)CC1` [cpd 32], the “sigma-1 receptor % inhibition 100 nM” value was determined as 91.1%.
For `O=c1c(-c2ccccc2)ccnn1C1CCN(Cc2ccccc2)CC1` [cpd 1, 2-(1-benzylpiperidin-4-yl)-4-phenylpyridazin-3(2H)-one hydrochloride], at 0.1 µM the inhibition was 97.1%.
For the compound `O=c1c(CCc2ccccc2)ccnn1C1CCN(Cc2ccccc2)CC1` [cpd 37, 2-(1-benzylpiperidin-4-yl)-4-(2-phenylethyl)-2,3-dihydropyridazin-3-one hydrochloride], the inhibition at 0.1 µM is 100%.
Same read-out and setting: the same measure for `O=c1cc(-c2ccccc2)cnn1C1CCN(Cc2ccccc2)CC1` [cpd 2, 2-(1-benzylpiperidin-4-yl)-5-phenylpyridazin-3(2H)-one hydrochloride]: 90%.
In turn, `O=c1c(-c2ccccc2)ccnn1CCC1CCN(Cc2ccccc2)CC1` [cpd 26, 2-(2-(1-benzylpiperidin-4-yl)ethyl)-4-phenylpyridazin-3(2H)-one hydrochloride] came in with an inhibition at 0.1 µM of 95%.
Turning to `O=c1c(N2CCCCC2)ccnn1C1CCN(Cc2ccccc2)CC1` [cpd 38, 2-(1-benzylpiperidin-4-yl)-4-(piperidin-1-yl)-2,3-dihydropyridazin-3-one hydrochloride], at 0.1 µM the inhibition was 90%.

The record behind these values is patent publication US20230049619A1, “SIGMA-1 RECEPTOR LIGANDS AND USES THEREOF” (UNIVERSITE DE STRASBOURG, priority 2019, published 2023).
